Results: patent US20240279218A1 (Hoffmann-La Roche Inc., priority 2016, published 2024)

Legend:
h-GABA-A α5β3γ2 [1] = target: T1, h-GABA-A α5β3γ2 (Homo sapiens (Human), UniProt P18507+P31644); test: Two-electrode voltage clamp electrophysiology in Xenopus oocytes expressing GABAA receptors, modulation of GABA EC20 current; assay type: cell-based; details: Xenopus oocytes; for Efficacy (GABA) %: % modulation of GABA EC20 = 100*(Fold increase−1); for Fold increase h-GABA-A α5β3γ2 oocyte: GABA EC20, test compound at approx. 30 fold its Ki
Procedure, shortened: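 Values are % modulation of an EC20 GABA response, derived point by point from the ratio of compound-exposed versus control current traces (extremum taken, 100×(fold−1)). Recordings used oocytes injected with human α5, β3, γ2 mRNA, clamped at −80 mV at room temperature, at least 3 oocytes each.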

h-GABA-A α5β3γ2 [2] = target: T1, h-GABA-A α5β3γ2; test: [3H]flumazenil competition binding assay, membranes of HEK293 cells expressing human GABAA receptors; details: displacement of [3H]flumazenil 0.5 nM, HEK293 cells expressing human receptors, mean of two determinations; read-out: Ki h-GABA-A α5β3γ2
Procedure, shortened: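 Membranes were prepared from HEK293 cells with transient human α5β3γ2 expression and assayed in Krebs-tris, pH 7.5. Bound radioactivity measured on filters by liquid scintillation.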

| Efficacy (GABA) % (h-GABA-A α5β3γ2 [1]) [%] | Fold increase h-GABA-A α5β3γ2 oocyte (h-GABA-A α5β3γ2 [1]) | Ki (h-GABA-A α5β3γ2 [2]) [nM] | Structure (SMILES) |
| --- | --- | --- | --- |
| 28 | 1.28 | 9.2 | Cc1ccc(-c2noc(C)c2COc2cnc(C(=O)NC3CC3)cn2)cn1 [Example 74, N-cyclopropyl-5-((5-methyl-3-(6-methyl-3-pyridyl)isoxazol-4-yl)methoxy)pyrazine-2-carboxamide] |
| 92 | 1.92 | 9 | Cc1ccc(-c2noc(C)c2COc2ccc(C(=O)NC3(C)CC3)nn2)cn1 [Example 76, 6-((5-methyl-3-(6-methylpyridin-3-yl)isoxazol-4-yl)methoxy)-N-(1-methylcyclopropyl)pyridazine-3-carboxamide] |
| 42 | 1.42 | 24.3 | Cc1ccc(-c2noc(C)c2COc2cnc(C(=O)NCC(F)(F)F)cn2)cn1 [Example 78, 5-((5-methyl-3-(6-methyl-3-pyridyl)isoxazol-4-yl)methoxy)-N-(2,2,2-trifluoroethyl)pyrazine-2-carboxamide] |
| 96 | 1.96 | 11.3 | Cc1ccc(-c2noc(C)c2COc2ccc(C(=O)NC(C)(C)CCO)nn2)cn1 [Example 79, N-(4-hydroxy-2-methylbutan-2-yl)-6-((5-methyl-3-(6-methylpyridin-3-yl)isoxazol-4-yl)methoxy)pyridazine-3-carboxamide] |
| 96 | 1.96 | 5 | Cc1ccc(-c2noc(C)c2COc2ccc(C(=O)NC3(C)COC3)nn2)cn1 [Example 83, 6-((5-methyl-3-(6-methylpyridin-3-yl)isoxazol-4-yl)methoxy)-N-(3-methyloxetan-3-yl)pyridazine-3-carboxamide] |
| 54 | 1.54 | 19 | Cc1ccc(-c2noc(C)c2COc2ccc(C(=O)N3CC(C#N)C3)nn2)cn1 [Example 84, 1-(6-((5-methyl-3-(6-methylpyridin-3-yl)isoxazol-4-yl)methoxy)pyridazine-3-carbonyl)azetidine-3-carbonitrile] |
| 120 | 2.2 | 17 | Cc1ccc(-c2noc(C)c2COc2cnc(C(=O)NC3CCC(F)(F)CC3)cn2)cn1 [Example 86, N-(4,4-difluorocyclohexyl)-5-((5-methyl-3-(6-methyl-3-pyridyl)isoxazol-4-yl)methoxy)pyrazine-2-carboxamide] |
| 80 | 1.8 | 8.1 | Cc1ccc(-c2noc(C)c2COc2ccc(C(=O)N[C@H]3CCOC3)nn2)cn1 [Example 87, (S)-6-((5-methyl-3-(6-methylpyridin-3-yl)isoxazol-4-yl)methoxy)-N-(tetrahydrofuran-3-yl)pyridazine-3-carboxamide] |
| 68 | 1.68 | 40.9 | CC[C@@H](CC#N)NC(=O)c1ccc(OCc2c(-c3ccc(C)nc3)noc2C)nn1 [Example 88, (S)—N-(1-cyanobutan-2-yl)-6-((5-methyl-3-(6-methylpyridin-3-yl)isoxazol-4-yl)methoxy)pyridazine-3-carboxamide] |
| 31 | 1.31 | 13.1 | Cc1ccc(-c2noc(C)c2COc2cnc(C(=O)N[C@@H]3CCOC3)cn2)cn1 [Example 89, (R)-5-((5-Methyl-3-(6-methylpyridin-3-yl)isoxazol-4-yl)methoxy)-N-(tetrahydrofuran-3-yl)pyrazine-2-carboxamide] |
| 37 | 1.37 | 16.7 | Cc1ccc(-c2noc(C)c2COc2cnc(C(=O)NCCO)cn2)cn1 [Example 90, N-(2-Hydroxyethyl)-5-((5-methyl-3-(6-methylpyridin-3-yl)isoxazol-4-yl)methoxy)pyrazine-2-carboxamide] |
| 140 | 2.4 | 5.5 | Cc1ccc(-c2noc(C)c2COc2cc3c(cn2)C(=O)N(C2CCS(=O)(=O)CC2)C3)cn1 [Example 91, 2-(1,1-dioxothian-4-yl)-6-((5-methyl-3-(6-methylpyridin-3-yl)-1,2-oxazol-4-yl)methoxy)-1H-pyrrolo[3,4-c]pyridin-3-one] |
| 92 | 1.92 | 10 | Cc1ccc(-c2noc(C)c2COc2cnc(C(=O)NC3CCS(=O)(=O)C3)cn2)cn1 (stereo not drawn) [Example 94, N-(1,1-dioxothiolan-3-yl)-5-((5-methyl-3-(6-methylpyridin-3-yl)-1,2-oxazol-4-yl)methoxy)pyrazine-2-carboxamide] |
| 67 | 1.67 | 13.4 | Cc1ccc(-c2noc(C)c2COc2cnc(C(=O)NCC3CC3)cn2)cn1 [Example 95, N-(cyclopropylmethyl)-5-((5-methyl-3-(6-methylpyridin-3-yl)isoxazol-4-yl)methoxy)pyrazine-2-carboxamide] |
| 88 | 1.88 | 7.2 | Cc1ccc(-c2noc(C)c2COc2cc3c(cn2)C(=O)N(C2CCC(F)(F)CC2)C3)cn1 [Example 96, 2-(4,4-difluorocyclohexyl)-6-((5-methyl-3-(6-methylpyridin-3-yl)isoxazol-4-yl)methoxy)-1H-pyrrolo[3,4-c]pyridin-3(2H)-one] |
| 71 | 1.71 | 13.6 | Cc1ccc(-c2noc(C)c2COc2ccc(C(=O)NC3(C)CCOCC3)nn2)cn1 [Example 97, 6-((5-methyl-3-(6-methylpyridin-3-yl)isoxazol-4-yl)methoxy)-N-(4-methyltetrahydropyran-4-yl)pyridazine-3-carboxamide] |
| 76 | 1.76 | 62.2 | Cc1ccc(-c2noc(C)c2COc2cnc(C(=O)N[C@@H]3CCCOC3)cn2)cn1 [Example 98, (R)-5-((5-methyl-3-(6-methylpyridin-3-yl)isoxazol-4-yl)methoxy)-N-(tetrahydropyran-3-yl)pyrazine-2-carboxamide] |
| 73 | 1.73 | 6.8 | Cc1ccc(-c2noc(C)c2COc2ccc(C(=O)N[C@@H]3CCCOC3)nn2)cn1 [Example 99, (R)-6-((5-methyl-3-(6-methylpyridin-3-yl)isoxazol-4-yl)methoxy)-N-(tetrahydropyran-3-yl)pyridazine-3-carboxamide] |
| 70 | 1.7 | 8.5 | Cc1ccc(-c2noc(C)c2COc2ccc(C(=O)NC3CC4(COC4)C3)nn2)cn1 [Example 100, 6-((5-methyl-3-(6-methylpyridin-3-yl)isoxazol-4-yl)methoxy)-N-(2-oxaspiro[3.3]heptan-6-yl)pyridazine-3-carboxamide] |

| Structure (SMILES) | Efficacy (GABA) % (h-GABA-A α5β3γ2 [1]) [%] | Fold increase h-GABA-A α5β3γ2 oocyte (h-GABA-A α5β3γ2 [1]) | Ki (h-GABA-A α5β3γ2 [2]) [nM] |
| --- | --- | --- | --- |
| Cc1ccc(-c2noc(C)c2COc2cnc(C(=O)NC3COC3)cn2)cn1 [Example 77, 5-((5-methyl-3-(6-methyl-3-pyridyl)isoxazol-4-yl)methoxy)-N-(oxetan-3-yl)pyrazine-2-carboxamide] | 11 | 1.11 | 5.2 |
